Measurements from patent publication US9695155B2, “Herbicidal substituted pyrimidinyloxy benzene compounds” (E. I. DU PONT DE NEMOURS AND COMPANY, priority 2013, dated 2017).

What was measured:
[1] = tested on: lambsquarters; experiment: Test C preemergence; format: in vivo, Chenopodium album; conditions: for Lambsquarters plant response rating: preemergence; for Plant response rating, Lambsquarters: Preemergence, 62 g ai/ha, scale 0 to 100, 0 no effect, 100 complete control
Procedure, shortened: (§1)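 Visual ratings on a 0–100 scale (100 = complete control) were made versus untreated controls after 13–15 greenhouse days. Chemicals in a surfactant-containing non-phytotoxic solvent were applied either preemergence to seeds in loam–sand soil or postemergence to 1- to 4-leaf plants 2–18 cm tall.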

[2] = tested on: large (Lg) crabgrass; experiment: Test C preemergence; format: in vivo, Digitaria sanguinalis; conditions: for Crabgrass, Large plant response rating: preemergence; for Plant response rating, Crabgrass, Large: Preemergence, 62 g ai/ha, scale 0 to 100, 0 no effect, 100 complete control
Procedure, shortened: as §1

[3] = tested on: kochia; experiment: Test A postemergence; format: in vivo, Kochia scoparia
Procedure, shortened: (§2)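 Compounds in non-phytotoxic solvent with surfactant applied as soil spray preemergence, or postemergence to plants 2-10 cm at one- to two-leaf stage, in loam/sand. After approximately 10 days in greenhouse, injury rated visually versus untreated controls, 0 (no effect) to 100 (complete control).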

[4] = tested on: soybean; experiment: Test C preemergence; format: in vivo, Glycine max; conditions: for Soybean plant response rating: preemergence; for Plant response rating, Soybean: Preemergence, 62 g ai/ha, scale 0 to 100, 0 no effect, 100 complete control
Procedure, shortened: as §1

[5] = tested on: giant foxtail; experiment: Test C preemergence; format: in vivo, Setaria faberii; conditions: for Foxtail, Giant plant response rating: preemergence; for Plant response rating, Foxtail, Giant: Preemergence, 62 g ai/ha, scale 0 to 100, 0 no effect, 100 complete control
Procedure, shortened: as §1

[6] = tested on: ragweed; experiment: Test A postemergence; format: in vivo, Ambrosia elatior
Procedure, shortened: as §2

[7] = tested on: yellow nutsedge; experiment: Test C preemergence; format: in vivo, Cyperus esculentus; conditions: for Nutsedge, Yellow plant response rating: preemergence; for Plant response rating, Nutsedge, Yellow: Preemergence, 62 g ai/ha, scale 0 to 100, 0 no effect, 100 complete control
Procedure, shortened: as §1

[8] = tested on: barnyardgrass; experiment: Test C preemergence; format: in vivo, Echinochloa crus-galli; conditions: for Barnyardgrass plant response rating: preemergence; for Plant response rating, Barnyardgrass: Preemergence, 62 g ai/ha, scale 0 to 100, 0 no effect, 100 complete control
Procedure, shortened: as §1

[9] = tested on: velvetleaf; experiment: Test C preemergence; format: in vivo, Abutilon theophrasti; conditions: for Velvetleaf plant response rating: preemergence; for Plant response rating, Velvetleaf: Preemergence, 62 g ai/ha, scale 0 to 100, 0 no effect, 100 complete control
Procedure, shortened: as §1

[10] = tested on: blackgrass; experiment: Test C preemergence; format: in vivo, Alopecurus myosuroides; conditions: for Blackgrass plant response rating: preemergence; for Plant response rating, Blackgrass: Preemergence, 62 g ai/ha, scale 0 to 100, 0 no effect, 100 complete control
Procedure, shortened: as §1

[11] = tested on: Italian ryegrass; experiment: Test A postemergence; format: in vivo, Lolium multiflorum
Procedure, shortened: as §2

[12] = tested on: pigweed; experiment: Test C preemergence; format: in vivo, Amaranthus retroflexus; conditions: for Pigweed plant response rating: preemergence; for Plant response rating, Pigweed: Preemergence, 62 g ai/ha, scale 0 to 100, 0 no effect, 100 complete control
Procedure, shortened: as §1

[13] = tested on: blackgrass; experiment: Test A postemergence; format: in vivo, Alopecurus myosuroides
Procedure, shortened: as §2

[14] = tested on: oilseed rape; experiment: Test C preemergence; format: in vivo, Brassica napus; conditions: for Oilseed Rape plant response rating: preemergence; for Plant response rating, Oilseed Rape: Preemergence, 62 g ai/ha, scale 0 to 100, 0 no effect, 100 complete control
Procedure, shortened: as §1

[15] = tested on: morningglory; experiment: Test C preemergence; format: in vivo, Ipomoea coccinea; conditions: for Morningglory plant response rating: preemergence; for Plant response rating, Morningglory: Preemergence, 62 g ai/ha, scale 0 to 100, 0 no effect, 100 complete control
Procedure, shortened: as §1

[16] = tested on: Italian ryegrass; experiment: Test C preemergence; format: in vivo, Lolium multiflorum; conditions: for Ryegrass, Italian plant response rating: preemergence; for Plant response rating, Ryegrass, Italian: Preemergence, 62 g ai/ha, scale 0 to 100, 0 no effect, 100 complete control
Procedure, shortened: as §1

[17] = tested on: galium; experiment: Test A postemergence; format: in vivo, Galium aparine
Procedure, shortened: as §2

[18] = tested on: johnsongrass; experiment: Test C preemergence; format: in vivo, Sorghum halepense; conditions: for Johnsongrass plant response rating: preemergence; for Plant response rating, Johnsongrass: Preemergence, 62 g ai/ha, scale 0 to 100, 0 no effect, 100 complete control
Procedure, shortened: as §1

[19] = tested on: waterhemp; experiment: Test C preemergence; format: in vivo, Amaranthus rudis; conditions: for Waterhemp plant response rating: preemergence; for Plant response rating, Waterhemp: Preemergence, 62 g ai/ha, scale 0 to 100, 0 no effect, 100 complete control
Procedure, shortened: as §1

[20] = 16 g ai/ha, scale 0 to 100 (0 no effect, 100 complete control)
[21] = 125 g ai/ha, scale 0 (no effect) to 100 (complete control)
[22] = 31 g ai/ha, 0 to 100 scale, 0 no effect, 100 complete control
[23] = 125 g ai/ha, 0 to 100 scale, 0 no effect, 100 complete control
[24] = 500 g ai/ha, 0 to 100 scale where 0 is no effect and 100 is complete control

## FC(F)Oc1cnn(-c2c(Cl)cccc2Oc2ncc(Cl)cn2)c1 [Compound 258]
[1]; [20]
  Lambsquarters plant response rating: 65
[1]; [21]
  Lambsquarters plant response rating: 98
[1]
  Plant response rating, Lambsquarters: 98
[2]; [20]
  Crabgrass, Large plant response rating: 100
[2]; [21]
  Crabgrass, Large plant response rating: 100
[2]
  Plant response rating, Crabgrass, Large: 100
[3]; [22]
  Plant response rating, Kochia: 90
[3]; [23]
  Plant response rating, Kochia: 100
[4]; [20]
  Soybean plant response rating: 35
[4]; [21]
  Soybean plant response rating: 95
[4]
  Plant response rating, Soybean: 75
[5]; [20]
  Foxtail, Giant plant response rating: 75
[5]; [21]
  Foxtail, Giant plant response rating: 100
[5]
  Plant response rating, Foxtail, Giant: 100
[6]; [22]
  Plant response rating, Ragweed: 10
[6]; [23]
  Plant response rating, Ragweed: 50
[7]; [20]
  Nutsedge, Yellow plant response rating: 5
[7]; [21]
  Nutsedge, Yellow plant response rating: 100
[7]
  Plant response rating, Nutsedge, Yellow: 95
[8]; [20]
  Barnyardgrass plant response rating: 45
[8]; [21]
  Barnyardgrass plant response rating: 100
[8]
  Plant response rating, Barnyardgrass: 90
[9]; [20]
  Velvetleaf plant response rating: 80
[9]; [21]
  Velvetleaf plant response rating: 100
[9]
  Plant response rating, Velvetleaf: 100
[10]; [20]
  Blackgrass plant response rating: 0
[10]; [21]
  Blackgrass plant response rating: 90
[10]
  Plant response rating, Blackgrass: 90
[11]; [22]
  Plant response rating, Ryegrass, Italian: 0
[11]; [23]
  Plant response rating, Ryegrass, Italian: 20
[12]; [20]
  Pigweed plant response rating: 100
[12]; [21]
  Pigweed plant response rating: 100
[12]
  Plant response rating, Pigweed: 100
[13]; [22]
  Plant response rating, Blackgrass: 20
[13]; [23]
  Plant response rating, Blackgrass: 50
[14]; [20]
  Oilseed Rape plant response rating: 80
[14]; [21]
  Oilseed Rape plant response rating: 100
[14]
  Plant response rating, Oilseed Rape: 100
[15]; [20]
  Morningglory plant response rating: 10
[15]; [21]
  Morningglory plant response rating: 98
[15]
  Plant response rating, Morningglory: 45
[16]; [20]
  Ryegrass, Italian plant response rating: 0
[16]; [21]
  Ryegrass, Italian plant response rating: 70
[16]
  Plant response rating, Ryegrass, Italian: 25
[17]; [22]
  Plant response rating, Galium: 70
[17]; [23]
  Plant response rating, Galium: 90
[18]; [20]
  Johnsongrass plant response rating: 5
[18]; [21]
  Johnsongrass plant response rating: 90
[18]
  Plant response rating, Johnsongrass: 75
[19]; [20]
  Waterhemp plant response rating: 100
[19]; [21]
  Waterhemp plant response rating: 100
[19]
  Plant response rating, Waterhemp: 98

## N#Cc1cn(-c2c(C#N)cccc2Oc2ncc(Cl)cn2)nn1 [Compound 273]
[1]; [20]
  Lambsquarters plant response rating: 35
[1]; [21]
  Lambsquarters plant response rating: 100
[1]
  Plant response rating, Lambsquarters: 100
[2]; [20]
  Crabgrass, Large plant response rating: 90
[2]; [21]
  Crabgrass, Large plant response rating: 100
[2]
  Plant response rating, Crabgrass, Large: 95
[3]; [23]
  Plant response rating, Kochia: 70
[3]; [24]
  Plant response rating, Kochia: 100
[4]; [20]
  Soybean plant response rating: 5
[4]; [21]
  Soybean plant response rating: 65
[4]
  Plant response rating, Soybean: 40
[5]; [20]
  Foxtail, Giant plant response rating: 0
[5]; [21]
  Foxtail, Giant plant response rating: 90
[5]
  Plant response rating, Foxtail, Giant: 75
[6]; [23]
  Plant response rating, Ragweed: 40
[6]; [24]
  Plant response rating, Ragweed: 90
[7]; [20]
  Nutsedge, Yellow plant response rating: 0
[7]; [21]
  Nutsedge, Yellow plant response rating: 35
[7]
  Plant response rating, Nutsedge, Yellow: 5
[8]; [20]
  Barnyardgrass plant response rating: 0
[8]; [21]
  Barnyardgrass plant response rating: 85
[8]
  Plant response rating, Barnyardgrass: 25
[9]; [20]
  Velvetleaf plant response rating: 10
[9]; [21]
  Velvetleaf plant response rating: 85
[9]
  Plant response rating, Velvetleaf: 85
[10]; [20]
  Blackgrass plant response rating: 0
[10]; [21]
  Blackgrass plant response rating: 70
[10]
  Plant response rating, Blackgrass: 5
[11]; [23]
  Plant response rating, Ryegrass, Italian: 50
[11]; [24]
  Plant response rating, Ryegrass, Italian: 80
[12]; [20]
  Pigweed plant response rating: 55
[12]; [21]
  Pigweed plant response rating: 100
[12]
  Plant response rating, Pigweed: 100
[13]; [23]
  Plant response rating, Blackgrass: 60
[13]; [24]
  Plant response rating, Blackgrass: 80
[14]; [20]
  Oilseed Rape plant response rating: 0
[14]; [21]
  Oilseed Rape plant response rating: 100
[14]
  Plant response rating, Oilseed Rape: 80
[15]; [20]
  Morningglory plant response rating: 5
[15]; [21]
  Morningglory plant response rating: 85
[15]
  Plant response rating, Morningglory: 55
[16]; [20]
  Ryegrass, Italian plant response rating: 0
[16]; [21]
  Ryegrass, Italian plant response rating: 60
[16]
  Plant response rating, Ryegrass, Italian: 0
[17]; [23]
  Plant response rating, Galium: 80
[17]; [24]
  Plant response rating, Galium: 100
[18]; [20]
  Johnsongrass plant response rating: 0
[18]; [21]
  Johnsongrass plant response rating: 80
[18]
  Plant response rating, Johnsongrass: 55
[19]; [20]
  Waterhemp plant response rating: 45
[19]; [21]
  Waterhemp plant response rating: 100
[19]
  Plant response rating, Waterhemp: 98
